In PubChem BioAssay AID330 (DTP/NCI, 2004):
Values joined by “and” are separate entries in the source; they are usually repeats but may differ in a detail not shown here. Equal values may be shown once. Toxic doses and inconclusive results are not listed.

System: P388 leukemia ip, CD2F1 mice, survival T/C
Assay: NCI In Vivo Anticancer Drug Screen. Data for tumor model P388 Leukemia (intraperitoneal) in CD2F1 (CDF1) mice
Details: endpoint: median survival time, higher = longer survival
Outline: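 Mice carrying the transplanted tumor received test compound or vehicle. Survival was recorded in each group, and the value is the treated-group measurement divided by that of the vehicle-treated control group.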

[1] = dose: 25.0 mg/kg/injection, schedule: Q01DX009 (ip), vehicle: Klucel (hydroxypropylcellulose) (HPC)
[2] = dose: 50.0 mg/kg/injection, schedule: Q01DX009 (ip), vehicle: Klucel (hydroxypropylcellulose) (HPC)
[3] = dose: 100.0 mg/kg/injection, schedule: Q01DX009 (ip), vehicle: Klucel (hydroxypropylcellulose) (HPC)
[4] = dose: 100.0 mg/kg/injection, schedule: Q04DX003 (ip), vehicle: saline with Tween-80
[5] = dose: 400.0 mg/kg/injection, schedule: Q04DX003 (ip), vehicle: saline with Tween-80
[6] = dose: 60.0 mg/kg/injection, schedule: Q01DX005 (ip), vehicle: Klucel (hydroxypropylcellulose) (HPC)
[7] = dose: 120.0 mg/kg/injection, schedule: Q01DX005 (ip), vehicle: Klucel (hydroxypropylcellulose) (HPC)
[8] = dose: 50.0 mg/kg/injection, schedule: Q01DX009 (ip), vehicle: saline with Tween-80
[9] = dose: 100.0 mg/kg/injection, schedule: Q01DX009 (ip), vehicle: saline with Tween-80
[10] = dose: 200.0 mg/kg/injection, schedule: Q01DX009 (ip), vehicle: saline with Tween-80
[11] = dose: 60.0 mg/kg/injection, schedule: Q01DX005 (ip), vehicle: saline with Tween-80
[12] = dose: 120.0 mg/kg/injection, schedule: Q01DX005 (ip), vehicle: saline with Tween-80
[13] = dose: 100.0 mg/kg/injection, schedule: Q01DX001 (ip), vehicle: saline
[14] = dose: 25.0 mg/kg/injection, schedule: Q01DX009 (ip), vehicle: saline
[15] = dose: 50.0 mg/kg/injection, schedule: Q01DX009 (ip), vehicle: saline
[16] = dose: 100.0 mg/kg/injection, schedule: Q01DX009 (ip), vehicle: saline
[17] = dose: 25.0 mg/kg/injection, schedule: Q01DX005 (ip), vehicle: Klucel (hydroxypropylcellulose) (HPC)
[18] = dose: 200.0 mg/kg/injection, schedule: Q01DX009 (ip), vehicle: saline
[19] = dose: 50.0 mg/kg/injection, schedule: Q01DX005 (ip), vehicle: Klucel (hydroxypropylcellulose) (HPC)
[20] = dose: 100.0 mg/kg/injection, schedule: Q01DX005 (ip), vehicle: Klucel (hydroxypropylcellulose) (HPC)
[21] = dose: 240.0 mg/kg/injection, schedule: Q01DX005 (ip), vehicle: saline with Tween-80

## CC(C)=CCC/C(C)=C/CC1=CC(=O)C=CC1=O
[1]
  T/C: 101 % of control
[2]
  T/C: 97 % of control
[3]
  T/C: 87 % of control

## Nc1nc(N)c(N=O)c(Nc2ccc(Br)cc2)n1
[4]
  T/C: 91 % of control
[5]
  T/C: 95 % of control

## O=C(O)c1ccc2c(c1Sc1ccccc1)C(=O)c1ccccc1C2=O
[6]
  T/C: 110 % of control
[7]
  T/C: 107 % of control

## CCN(CC)Cc1cc(N)cc(N=Nc2ccc3c(c2)c2ccccc2n3CC)c1O
[8]
  T/C: 97 % of control
[9]
  T/C: 108 % of control
[10]
  T/C: 105 % of control

## CNC(=O)Nc1ccc(/C(C)=N/NC(N)=S)cc1
[11]
  T/C: 96 % of control
[12]
  T/C: 89 % of control

## CCOC(=O)c1ccc(C(=O)OCC)nc1
dose: 25.0 mg/kg/injection, schedule: Q01DX001 (ip), vehicle: saline
  T/C: 100 % of control
dose: 50.0 mg/kg/injection, schedule: Q01DX001 (ip), vehicle: saline
  T/C: 100 % of control
[13]
  T/C: 100 % of control

## CCOC(=O)CCN(C)C1CCCCC1C(=O)OCC (centres undefined)
[14]
  T/C: 100 % of control
[15]
  T/C: 101 % of control
[16]
  T/C: 107 % of control

## c1ccc2c(NCCCCCCCCCCCCCCCCNc3c4ccccc4nc4ccccc34)c3ccccc3nc2c1
dose: 0.62 mg/kg/injection, schedule: Q01DX009 (ip), vehicle: other
  T/C: 98 % of control
dose: 1.25 mg/kg/injection, schedule: Q01DX009 (ip), vehicle: other
  T/C: 101 % of control
dose: 2.5 mg/kg/injection, schedule: Q01DX009 (ip), vehicle: other
  T/C: 105 % of control
dose: 5.0 mg/kg/injection, schedule: Q01DX009 (ip), vehicle: other
  T/C: 109 % of control
dose: 10.0 mg/kg/injection, schedule: Q01DX009 (ip), vehicle: other
  T/C: 108 % of control

## N=c1oc(-c2ccccc2)cc2ccccc12
dose: 6.25 mg/kg/injection, schedule: Q01DX005 (ip), vehicle: Klucel (hydroxypropylcellulose) (HPC)
  T/C: 104 % of control
dose: 12.5 mg/kg/injection, schedule: Q01DX005 (ip), vehicle: Klucel (hydroxypropylcellulose) (HPC)
  T/C: 100 % of control
[17]
  T/C: 104 % of control

## CC(C)CC1=C(C(=O)c2ccoc2)CC(C)C1 (centres undefined)
dose: 3.7 mg/kg/injection, schedule: Q01DX005 (ip), vehicle: Klucel (hydroxypropylcellulose) (HPC)
  T/C: 99 % of control
dose: 7.5 mg/kg/injection, schedule: Q01DX005 (ip), vehicle: Klucel (hydroxypropylcellulose) (HPC)
  T/C: 95 % of control
dose: 15.0 mg/kg/injection, schedule: Q01DX005 (ip), vehicle: Klucel (hydroxypropylcellulose) (HPC)
  T/C: 95 % of control

## N#CC1(C#N)C(C#N)(C#N)C12CCCCCC2
dose: 12.5 mg/kg/injection, schedule: Q04DX003 (ip), vehicle: Klucel (hydroxypropylcellulose) (HPC)
  T/C: 106 % of control
dose: 25.0 mg/kg/injection, schedule: Q04DX003 (ip), vehicle: Klucel (hydroxypropylcellulose) (HPC)
  T/C: 112 % of control
dose: 50.0 mg/kg/injection, schedule: Q04DX003 (ip), vehicle: Klucel (hydroxypropylcellulose) (HPC)
  T/C: 95 % of control

## O=c1c(Br)cn(Cc2ccccc2)cc1Br
dose: 50.0 mg/kg/injection, schedule: Q01DX005 (ip), vehicle: saline
  T/C: 92 % of control
dose: 100.0 mg/kg/injection, schedule: Q01DX005 (ip), vehicle: saline
  T/C: 95 % of control
dose: 200.0 mg/kg/injection, schedule: Q01DX005 (ip), vehicle: saline
  T/C: 90 % of control

## O=C(Nc1ccc(C2=NCCN2)cc1)c1cc(C(=O)Nc2ccc(C3=NCCN3)cc2)cc([N+](=O)[O-])c1
dose: 167.0 mg/kg/injection, schedule: Q01DX010 (ip), vehicle: saline
  T/C: 104 % of control
dose: 250.0 mg/kg/injection, schedule: Q01DX010 (ip), vehicle: saline
  T/C: 100 % of control
dose: 375.0 mg/kg/injection, schedule: Q01DX010 (ip), vehicle: saline
  T/C: 100 % of control
dose: 512.0 mg/kg/injection, schedule: Q01DX010 (ip), vehicle: saline
  T/C: 95 % of control

## CCOP1(=O)CCCCN1Cc1ccccc1 (centres undefined)
[15]
  T/C: 100 % of control
[16]
  T/C: 103 % of control

## CCCOC1(C)Oc2cc3c(cc2C(c2cc(OC)c(OC)c(OC)c2)C1C)OCO3 (centres undefined)
[6]
  T/C: 97 % of control
[7]
  T/C: 96 % of control
dose: 240.0 mg/kg/injection, schedule: Q01DX005 (ip), vehicle: Klucel (hydroxypropylcellulose) (HPC)
  T/C: 99 % of control

## O=C(CCl)N/N=C(\Cc1ccccc1)c1ccccc1
[9]
  T/C: 97 % of control
[10]
  T/C: 98 % of control
dose: 400.0 mg/kg/injection, schedule: Q01DX009 (ip), vehicle: saline with Tween-80
  T/C: 103 % of control

## CN(C)CC/C([O-])=N/[n+]1c2c(nc3ccccc31)-c1cccc3cccc-2c13
[1]
  T/C: 109 % of control
[2]
  T/C: 111 % of control
[3]
  T/C: 116 % of control

## CCCCCCCCCCCC(C)[N+](C)(C)[O-] (centres undefined)
dose: 12.5 mg/kg/injection, schedule: Q01DX009 (ip), vehicle: saline
  T/C: 102 % of control
[14]
  T/C: 96 % of control
[15]
  T/C: 87 % of control and 91 % of control

## COP(=O)(O)NS(=O)(=O)c1ccccc1
[13]
  T/C: 101 % of control
dose: 200.0 mg/kg/injection, schedule: Q01DX001 (ip), vehicle: saline
  T/C: 101 % of control
dose: 400.0 mg/kg/injection, schedule: Q01DX001 (ip), vehicle: saline
  T/C: 102 % of control

## NC(=O)NO
dose: 112.0 mg/kg/injection, schedule: Q03HX024 (ip), vehicle: saline
  T/C: 83 % of control
[18]
  T/C: 160 % of control
dose: 300.0 mg/kg/injection, schedule: Q01DX009 (ip), vehicle: saline
  T/C: 185 % of control
dose: 450.0 mg/kg/injection, schedule: Q01DX009 (ip), vehicle: saline
  T/C: 160 % of control and 184 % of control
dose: 500.0 mg/kg/injection, schedule: Q01DX009 (ip), vehicle: saline
  T/C: 200 % of control
dose: 750.0 mg/kg/injection, schedule: Q01DX009 (ip), vehicle: saline
  T/C: 100 % of control and 98 % of control
dose: 2000.0 mg/kg/injection, schedule: Q01DX001 (ip), vehicle: saline
  T/C: 98 % of control

## CC(=NC(C)(C)C)Nc1ccc(Cl)cc1
[8]
  T/C: 103 % of control
[9]
  T/C: 109 % of control

## CCCCN(CCCC)C(=O)C(O)C(=O)N(CCCC)CCCC
[17]
  T/C: 104 % of control
[19]
  T/C: 104 % of control
[20]
  T/C: 98 % of control
dose: 200.0 mg/kg/injection, schedule: Q01DX005 (ip), vehicle: Klucel (hydroxypropylcellulose) (HPC)
  T/C: 109 % of control

## CC1=Nc2c(C)noc2CC(c2ccccc2O)C1 (centres undefined)
[19]
  T/C: 101 % of control
[20]
  T/C: 106 % of control

## O=C(CCCC(=O)Nc1cccc2[nH]c3ccccc3c(=O)c12)Nc1cccc2[nH]c3ccccc3c(=O)c12
[11]
  T/C: 100 % of control
[12]
  T/C: 88 % of control
[21]
  T/C: 100 % of control

## O=C(Nc1ccc([N+](=O)[O-])cc1)OCCI
[4]
  T/C: 101 % of control
dose: 200.0 mg/kg/injection, schedule: Q04DX003 (ip), vehicle: saline with Tween-80
  T/C: 92 % of control
[5]
  T/C: 92 % of control

## CCN(CC)CCOC(=O)Nc1cc(C(F)(F)F)ccc1Cl
[11]
  T/C: 111 % of control
[12]
  T/C: 109 % of control
[21]
  T/C: 90 % of control

## O=C1OCCSCCOCCSCCOC(=O)c2cncc1c2
dose: 100.0 mg/kg/injection, schedule: Q01DX001 (ip), vehicle: Klucel (hydroxypropylcellulose) (HPC)
  T/C: 99 % of control
dose: 200.0 mg/kg/injection, schedule: Q01DX001 (ip), vehicle: Klucel (hydroxypropylcellulose) (HPC)
  T/C: 113 % of control
dose: 400.0 mg/kg/injection, schedule: Q01DX001 (ip), vehicle: Klucel (hydroxypropylcellulose) (HPC)
  T/C: 109 % of control

## Cc1cc(Cl)ccc1N=Cc1cccs1
[15]
  T/C: 90 % of control
[16]
  T/C: 90 % of control
[18]
  T/C: 89 % of control

## COc1ccc(N=C([Se])CCC(C)C)cc1
dose: 6.25 mg/kg/injection, schedule: Q01DX009 (ip), vehicle: Klucel (hydroxypropylcellulose) (HPC)
  T/C: 111 % of control
dose: 12.5 mg/kg/injection, schedule: Q01DX009 (ip), vehicle: Klucel (hydroxypropylcellulose) (HPC)
  T/C: 106 % of control
[1]
  T/C: 108 % of control
